# Reference: patent publication US20050261265A1, “MODULATING CELLULAR SENESCENCE BY AMPHIPHYSIN-1” (priority 2000, published 2005)
# {FL} = fluorescein region
# Key:
# caveolin-1 [1] = experiment: Immunostaining of caveolin-1 in old fibroblasts transfected with oligonucleotide; format: cell-based, human; conditions: old fibroblasts PDL 64; for expression of caveolin-1 in cell (immunostaining): with a lapse of treatment time, FIG. 19
# Protocol: (§1) Old human fibroblasts (PDL 64) were placed onto 24 well-plate or dish containing DMEM without FBS and incubated in incubator (37° C., 5% CO2) for 12 hr. After incubation, 1-5 μg of 100 μM antisense oligonucleotides synthesized and Plus reagent (Gibco-BRL) were mixed with 500 μl of DMEM and subsequently reacted for 15 min. at room temperature, and the resulting mixture was well mixed with 500 μl of the mixture containing 12 μl of Lipofectamine (Gibco-BRL) and DMEM, followed by standing the mixture for 15 min. at room temperature in order to form liposome complex. The incubated cells were washed twice with DMEM (no serum) and treated with 1 ml of the liposome complex, followed by incubation for 3 hr at 37° C. To the transfected cells, 1-5 ml of DMEM containing 10% FBS was added and the incubation was subsequently carried out for 24 hr, after which the media was changed with DMEM containing 10% FBS. Following incubation for a given period, immunostaining and western blotting were carried out as follows:
# The cells treated with antisense oligonucleotide were fixed with 0.5 ml of 4% paraformaldehyde for 20 min at room temperature and then permeabilized with 0.5 ml of 0.5% Triton X-100 in PBS for 10 min, followed by blocking with 2% BSA (in PBS). The cells were sequentially incubated with anti-caveolin-1 antibody (Transduction Laboratory) overnight at 4° C. and then rhodamine-conjugated secondary antibody (Santa Cruz) for 1 hr at room temperature. For the purpose of visualizing nucleus, DAPI (Molecular Probe) was also added. The observation was performed using confocal microscope (Biorad, #MRC1024).
# Erk-1/2 = experiment: Western blotting of Erk-1/2 activation upon EGF after oligonucleotide transfection; format: cell-based, human; conditions: old cells; 100 ng/ml EGF; FIG. 20
# Protocol: Young cells (PDL less than 30), middle cells (PDL 35-45) and old cells (PDL more than 60) of Human fibroblasts or IMR-90 cells, respectively were stimulated with 100 ng/ml EGF (Gibco-BRL, human, recombinant). After stimulation, western blotting was performed as described in Example V. Monoclonal anti-phospho-Erk-1/2 antibody, polyclonal anti-Erk-1/2 antibody and polyclonal anti-EGFR antibody were purchased from Santa Cruz Biotechnology, Inc. As found in FIG. 13a, in both young and middle-aged cells, Erk-1/2 kinases were phosphorylated (activated) within 5 min, and the resulting activation was sustained for 15 min after EGF stimulation. However, the phosphorylation of Erk-1/2 kinase from old cells was not detected until 15 min had lapsed. The expression level of Erk kinase and EGFR was not changed by the increase of population doubling in Western blot (see FIG. 13b), despite the down-regulation of EGF signaling to Erk kinases.
# The old and young fibroblasts were treated with antisense oligonucleotide as described in Example XVII. The EGF stimulation and western blotting were carried out as described in Example XI. FIG. 20 represents the results of this Example.
# p-Erk-1/2 = experiment: Immunostaining of p-Erk-1/2 translocation to nucleus; format: cell-based, human; conditions: old cells; EGF; FIG. 22
# Protocol: To verify that Erk-1/2 kinase activated in Example XVIII is translocated into nucleus and regulate sequentially the expression of other genes, immunostaining was performed as follows: Young and old fibroblasts were treated with antisense oligonucleotide and EGF as Example XIII. The treated cells were sequentially incubated with anti-p-Erk (phosphorylated-Erk) antibody (New England Biotech) overnight at 4° C. and then FITC-conjugated secondary antibody (Santa Cruz) for 1 hr at room temperature. For the purpose of visualizing nucleus, DAPI (Molecular Probe) was also added. The image of p-Erk-1/2 localization was visualized using confocal microscope (Biorad, #MRC1024), which is found in FIGS. 21 and 22. In FIGS. 21 and 22, arrows indicate translocation of p-Erk-1/2 kinase into nucleus.
# caveolin-1 [2] = experiment: Western blotting of caveolin-1 in cells treated with oligonucleotides; format: cell-based, human; conditions: old fibroblasts PDL 64
# Protocol: Analysis of caveolin expression, in young cells (PDL less than 30), middle cells (PDL 35-45) and old cells (PDL more than 60) of Human fibroblasts or IMR-90 cells, was performed by Western blotting as described in Example V. Monoclonal anti-caveolin-1 antibody, monoclonal anti-caveolin-2 antibody and monoclonal anti-caveolin-3 antibody were purchased from Transduction Laboratories.
# as §1, with “follows: […]” for “follows:”
# human fibroblasts = experiment: Senescence-associated β-galactosidase activity staining; format: cell-based; conditions: for β-galactosidase activity shown from (days after treatment), entry of cellular senescence: fibroblasts PDL 16, 400 μM
# Protocol: The fibroblasts subcultured in Exmaple I-1, PDL of which are 16, were placed in culture plate and were kept to arrest cell cycle to G1 phase in incubator (37° C., 5% CO2 and humidified) for a week. The cell cycle arrest was confirmed as follows: Following the fixation of the cells with cold ethanol, the cells were stained for 30 min. at room temperature using PI staining solution (containing 50 μg/ml of Rnase A and 50 μg/ml of propinium iodide in PBS). Thereafter, using FACS (fluorescence-activated cell sorter), the cell cycle was confirmed by observing DNA phenotype, i.e., 2n or 4n.
# The fibroblasts arrested in G1 phase were treated with 400 μM H2O2 and then incubated for 3 hrs., followed by washing with 10 ml of PBS. Then, the cells were subcultured at a 1:4 ratio and under normal conditions for cell culure (37° C., 5% CO2 and humidified), cell culture was continuously performed. Following 7 days after the treatment, the cells were determined in terms of senescence using senescence-associated […] activity staining as described in Example III.
# The fibroblasts subcultured in Exmaple I-1, PDL of which are 16, were placed in culture plate containing DMEM and were cultured in incubator (37° C., 5% CO2 and humidified) for 14 hrs. Thereafter, the fibroblasts were treated with 400 μM Hydroxyurea and then incubated continuously. The medium was renewed once per 3 days with the addition of fresh 400 μM Hydroxyurea. Following 14 days after the treatment, the cells were determined in terms of senescence using senescence-associated […] activity staining as described in Example III.
# A senescence-associated […] activity staining (hereinafter referred to as “SA β-gal activity staining) was performed according to the method of Dimri et al. (Dimri G P et al., Proc. Natl. Acad. Sci., 92:9363(1995)): The semiconfluent fibroblasts were washed twice with 10 ml of PBS and fixed with 2% paraformaldehyde in PBS for 5 min. at room temperature. […]
# caveolin-1 [3] = experiment: Western blotting of young cells treated with demethylating agent; format: cell-based, human; conditions: young fibroblasts PDL 20; 1 μM; FIG. 23b
# Protocol: (§2) The induction of cellular senescence was verified by SA β-gal activity staining as Example III. To investigate the expression of related proteins, the treated cells were harvested in different days and western blotting was performed as previously described. In western blotting, anti-p53 antibody, anti-p16 antibody, anti-caveolin-1 antibody and anti-actin antibody were purchased from Santa Cruz Biotechnology, Inc.
# p16 = experiment: as above; format: cell-based, human; conditions: young fibroblasts PDL 20; 1 μM; FIG. 23b
# Protocol: as §2
# [4] = tested on: receptor-mediated endocytosis; experiment: Internalization of rhodamine-conjugated transferrin in artificially induced senescent cells (confocal microscopy); format: cell-based, human; conditions: 25 μg/ml rhodamine-conjugated transferrin, FIG. 4
Compound,cell morphology (caveolin-1 [1]),expression of caveolin-1 in cell (immunostaining) (caveolin-1 [1]),Erk-1/2 activation by EGF (Erk-1/2),p-Erk-1/2 in nucleus (p-Erk-1/2),"β-galactosidase activity shown from (days after treatment), entry of cellular senescence (human fibroblasts) [days]",function of receptor-mediated endocytosis (internalization of fluorescent transferrin) [4],further results
"5′-atgtctgggggc-3′ (sense ATGTCTGGGGGC; all phosphorothioate, 5' {FL}, sugars by position and methylation of C not given here) [sense oligonucleotide, sense oligonucleotide for the same region of caveolin-1 mRNA, control]",did not show such cell-morphology alteration,not changed,no alteration in Erk-1/2 activation,no p-Erk-1/2 in nucleus,–,–,–
"5′-tttgcccccaga-3′ (antisense TTTGCCCCCAGA; all phosphorothioate, 5' {FL}, sugars by position and methylation of C not given here) [antisense oligonucleotide]",enlarged and spread morphology to smaller and spindle morphology,dramatically decreased,highly increased,vice versa,–,–,caveolin-1 band (western blotting) (caveolin-1 [2]): weaker band corresponding to caveolin-1
Nc1ncn([C@H]2C[C@H](O)[C@@H](CO)O2)c(=O)n1 [5-aza-deoxycytidine],–,–,–,–,–,–,"SA β-gal activity staining (induction of cellular senescence) (human fibroblasts; young fibroblasts PDL 20, 1 μM, treated for about 2 weeks, FIG. 23a): senescent cell-like phenomenon; expression of caveolin-1 (caveolin-1 [3]): increased; expression of p16 (p16): increased"
OO [H2O2],–,–,–,–,10,reduced function of receptor-mediated endocytosis,–
"NC(=O)NO [hydroxyurea, Hydroxyurea]",–,–,–,–,14 to 20,reduced function of receptor-mediated endocytosis,–
